Measurements from patent publication US20120095022A1, “DERIVATIVES OF 10-AMINO-1,2,3,4-TETRAHYDROPYRIDO[2,1-A]ISOINDOL-6(10BH)-ONES, METHOD FOR PREPARATION THEREOF AND THERAPEUTIC USES THEREOF” (UNIVERSITE D'ORLEANS, priority 2009, published 2012).

Columns and labels:
Huh7 (liver) = test: Cytotoxicity on human cells, automated nuclei counting: Huh7; assay type: cell-based; settings: Huh-7, exposed 24 h to 48 h, 0.1 to 25 μM
Experimental: (§1) Cytotoxicity: This method is based on an automated imaging analysis. 4.10^3 cells were cultivated on 96-well plates and left for 24 hours so as to bind, to spread and proliferate.
(§2) All the cell lines were cultivated in a DMEM or RPMI (Invitrogen) medium. All these media were completed with antibiotics (penicillin-streptomycin) (Lonza) and 10% by volume of fetal calf serum (Invitrogen). The cells were cultivated at 37° C. with 5% of CO2. The treatments with the molecules to be tested were carried out with increasing concentrations. The control experiments were also carried out by using suitable dilutions of DMSO (maximum 1% DMSO).

Caco (colon) = test: Cytotoxicity on human cells, automated nuclei counting: Caco; assay type: cell-based; settings: exposed 24 h to 48 h, 0.1 to 25 μM
Experimental: as §1, §2

MDA-MB 231 (breast) = test: Cytotoxicity on human cells, automated nuclei counting: MDA-MB 231; assay type: cell-based; settings: MDA-MB 231 cells, exposed 24 h to 48 h, 0.1 to 25 μM
Experimental: as §1, §2

HCT 116 (colon) = test: Cytotoxicity on human cells, automated nuclei counting: HCT 116; assay type: cell-based; settings: HCT 116 cells, exposed 24 h to 48 h, 0.1 to 25 μM
Experimental: as §1, §2

PC3 (prostate) = test: Cytotoxicity on human cells, automated nuclei counting: PC3; assay type: cell-based; settings: PC-3, exposed 24 h to 48 h, 0.1 to 25 μM
Experimental: as §1, §2

NCI (lung) = test: Cytotoxicity on human cells, automated nuclei counting: NCI; assay type: cell-based; settings: exposed 24 h to 48 h, 0.1 to 25 μM
Experimental: as §1, §2

fibroblast = test: Cytotoxicity on human cells, automated nuclei counting: fibroblast; assay type: cell-based; settings: exposed 24 h to 48 h, 0.1 to 25 μM
Experimental: as §1, §2

CDK5/D25 = target: T1, CDK5/D25 (Homo sapiens, UniProt Q00535); test: CDK5 kinase inhibition (33P-ATP, histone H1); assay type: biochemical; settings: buffer C, 30° C., 15 μM ATP, read-out: IC50 μM Kinases CDK5
T1 construct: made in house
Experimental: The protein kinase inhibition activities of the compounds of the invention are tested according to the following general procedure:
Buffer C: 60 mM β-glycerophosphate, 15 mM p-nitrophenyl-phosphate, 25 mM Mops (pH 7.2), 5 mM EGTA, 15 mM mgCl2, 1 mM DTT, 1 mM sodium vanadate and 1 mM phenylphosphate.
The controls were made with suitable dilutions of DMSO.
ATP (3.000 Ci/mmol.; 10 mCi/mL) in a final volume of 30 μL. After 30 mins of incubation at 30° C., 25 μL of supernatant aliquots were deposited on phosphocellulose Whatman P81 paper pieces of 2.5×3 cm, and after 20 seconds, the filters were washed five times (for at least 5 minutes each time) in a solution of 10 mL of phosphoric acid/1 litre of water. The wet filters were counted in the presence of 1 mL of scintillation fluid ACS (Amersham).

GSK-3αβ = test: GSK-3 kinase inhibition (GS-1 substrate); settings: read-out: IC50 μM Kinases GSK3, buffer A, 30° C., 15 μM ATP
DYRK1A = DYRK1A (Homo sapiens, UniProt Q13627); test: DYRK1A kinase inhibition (Woodtide substrate)

T1 sequence (Q00535 whole entry): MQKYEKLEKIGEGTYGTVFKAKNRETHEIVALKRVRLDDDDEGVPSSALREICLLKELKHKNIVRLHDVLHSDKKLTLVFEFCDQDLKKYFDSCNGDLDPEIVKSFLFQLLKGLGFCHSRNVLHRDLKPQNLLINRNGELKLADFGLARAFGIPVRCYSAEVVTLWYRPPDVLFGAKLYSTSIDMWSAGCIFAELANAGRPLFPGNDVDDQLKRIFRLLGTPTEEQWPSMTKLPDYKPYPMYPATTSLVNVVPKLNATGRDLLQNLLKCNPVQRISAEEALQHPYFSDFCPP
T1 sequence (Q15078 99-307 partner limits assumed): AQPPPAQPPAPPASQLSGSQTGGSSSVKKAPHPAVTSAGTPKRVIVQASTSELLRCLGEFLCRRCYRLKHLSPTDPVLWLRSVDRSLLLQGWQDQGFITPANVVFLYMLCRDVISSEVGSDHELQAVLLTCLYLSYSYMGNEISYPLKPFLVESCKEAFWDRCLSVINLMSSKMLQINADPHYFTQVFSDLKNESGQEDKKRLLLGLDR

SMILES | IC50 (Huh7 (liver)) [µM] | IC50 (Caco (colon)) [µM] | IC50 (MDA-MB 231 (breast)) [µM] | IC50 (HCT 116 (colon)) [µM] | IC50 (PC3 (prostate)) [µM] | IC50 (NCI (lung)) [µM] | IC50 (fibroblast) [µM] | IC50 (CDK5/D25) [µM] | melting point [°C] | IC50 (GSK-3αβ) [µM] | IC50 (DYRK1A) [µM]
O=C(Nc1cccc(Br)n1)Nc1cccc2c1C1CC3(CCN1C2=O)OCCO3 (centres unmarked) [Compound 47] | 8 | 12 | 20 | 6 | 6 | 20 | 20 | > 10 | 184 to 186 | 0.89 | > 10
O=C(Nc1ccc(Br)cn1)Nc1cccc2c1C1CC3(CCN1C2=O)SCCS3 (centres unmarked) [Compound 31, 1-(5-Bromopyridin-2-yl)-3-(6′-oxo-3′,4′,6′,10b′-tetrahydro-1′H-spiro[[1,3]dithiolane-2,2′-pyrido[2,1-a]isoindole]-10′-yl)urea] | 0.8 | 5 | 4 | 1.2 | 3 | 1.5 | 8 | 7.3 | 240 | 0.068 | ≥ 10
O=C(Nc1ccc(Br)cn1)Nc1cccc2c1C1CCCCN1C2=O (centres unmarked) [Compound 18, 1-(5-Bromopyridin-2-yl)-3-(6-oxo-1,2,3,4,6,10b-hexahydropyrido[2,1-a]isoindol-10-yl)urea] | > 25 | > 25 | > 25 | > 25 | > 25 | > 25 | > 25 | 0.13 | 225 | 0.076 | 21
O=C1c2cccc(NC(=S)Nc3cnccn3)c2C2CC3(CCN12)SCCS3 (centres unmarked) [Compound 69, 1-(6′-Oxo-3′,4′,6′,10b′-tetrahydro-1′H-spiro[[1,3]dithiolane-2,2′-pyrido[2,1-a]isoindole]-10′-yl)-3-(pyrazin-2-yl)thiourea] | > 25 | 4 | 10 | 15 | > 25 | > 25 | 25 | > 10 | 128 | > 10 | > 10
O=C1c2cccc(NC(=S)Nc3cc[nH]n3)c2C2CC3(CCN12)SCCS3 (centres unmarked) [Compound 71, 1-(6′-Oxo-3′,4′,6′,10b′-tetrahydro-1′H-spiro[[1,3]dithiolane-2,2′-pyrido[2,1-a]isoindole]-10′-yl)-3-(1H-pyrazol-3-yl)thiourea] | 20 | 15 | 15 | 7 | > 25 | 15 | 25 | > 10 | 185 | > 10 | > 10
Cc1cccc(NC(=O)Nc2cccc3c2C2CC4(CCN2C3=O)SCCS4)n1 (centres unmarked) [Compound 50] | 5 | 10 | 15 | 12 | 6 | 15 | 2 | > 10 | 154 to 156 | 2 | > 10
O=C1c2cccc(NC(=S)Nc3cnccn3)c2C2CCCCN12 (centres unmarked) [Compound 63, 1-(6-Oxo-1,2,3,4,6,10b-hexahydropyrido[2,1-a]isoindol-10-yl)-3-(pyrazin-2-yl)thiourea] | > 25 | > 25 | > 25 | > 25 | > 25 | > 25 | > 25 | 26 | 204 | 8 | > 100
O=C1c2cccc(NC(=S)Nc3cc[nH]n3)c2C2CCCCN12 (centres unmarked) [Compound 64, 1-(6-Oxo-1,2,3,4,6,10b-hexahydropyrido[2,1-a]isoindol-10-yl)-3-(1H-pyrazol-3-yl)thiourea] | 8 | 20 | 25 | 20 | 6 | 25 | > 25 | 56 | 208 | 16 | ≥ 100
Cc1cnc(NC(=O)Nc2cccc3c2C2CC4(CCN2C3=O)SCCS4)cn1 (centres unmarked) [Compound 51] | 0.3 | 0.5 | 0.4 | 0.2 | 0.4 | 0.8 | 8 | 0.22 | > 260 | 0.05 | > 10
O=C1c2cccc(NC(=S)Nc3ncccn3)c2C2CCCCN12 (centres unmarked) [Compound 65, 1-(6-Oxo-1,2,3,4,6,10b-hexahydropyrido[2,1-a]isoindol-10-yl)-3-(pyrimidin-2-yl)thiourea] | > 25 | 20 | 25 | > 25 | > 25 | > 25 | > 25 | > 10 | 212 | > 10 | ≥ 100
O=C(Nc1cnccn1)Nc1cccc2c1C1C[C@@H](O)CCN1C2=O (stereo partly drawn) [Compound 105, 1-((2S)-2-Hydroxy-6-oxo-1,2,3,4,6,10b-hexahydropyrido[2,1-a]isoindol-10-yl)-3-(pyrazin-2-yl)urea] | 4 | > 25 | 25 | 8 | 20 | 8 | 12 | 0.084 | 250 | 0.032 | > 10
Cc1nc(NC(=O)Nc2cccc3c2C2CCCCN2C3=O)cs1 (centres unmarked) [Compound 35, 1-(2-Methylthiazol-4-yl)-3-(6-oxo-1,2,3,4,6,10b-hexahydropyrido[2,1-a]isoindol-10-yl)urea] | 0.9 | 0.7 | 1.5 | 0.6 | 1.5 | 3 | 0.4 | 0.53 | 146 | 0.12 | > 10
COc1cc(NC(=O)Nc2cccc3c2C2CC4(CCN2C3=O)OCCO4)nc2ccccc12 (centres unmarked) [Compound 48] | 8 | > 25 | 4 | 8 | 8 | 20 | 20 | > 10 | 258 to 260 | 1 | > 10
COc1cc(NC(=O)Nc2cccc3c2C2CC(OC)CCN2C3=O)nc2ccccc12 (centres unmarked) [Compound 55, 1-(2-Methoxy-6-oxo-1,2,3,4,6,10b-hexahydropyrido[2,1-a]isoindol-10-yl)-3-(4-methoxyquinolin-2-yl)urea] | 3 | 10 | 15 | 2.5 | 3 | 5 | 10 | 8.5 | > 260 | 0.18 | > 10
O=C1c2cccc(NC(=S)Nc3ccccn3)c2C2CC3(CCN12)SCCS3 (centres unmarked) [Compound 70, 1-(6′-Oxo-3′,4′,6′,10b′-tetrahydro-1′H-spiro[[1,3]dithiolane-2,2′-pyrido[2,1-a]isoindole]-10′-yl)-3-(pyridin-2-yl)thiourea] | 15 | 2 | 3 | 2 | > 25 | 10 | 20 | 19 | 142 | 2.5 | 22
O=C(Nc1csc(-c2ccncc2)n1)Nc1cccc2c1C1CCCCN1C2=O (centres unmarked) [Compound 37, 1-(6-Oxo-1,2,3,4,6,10b-hexahydropyrido[2,1-a]isoindol-10-yl)-3-(2-(pyridin-4-yl)thiazol-4-yl)urea] | 2 | 1.5 | 1.5 | 0.7 | 1 | 4 | 3 | 1.7 | 152 | 0.13 | 2.4
